Measurements from US8613914B2, “Peptidomimetic sulfamide compounds and antiviral uses thereof” (Novartis AG, priority 2009, dated 2013).

Target: HCV NS3-4A serine protease (full-length NS3-4A protein) (Hepatitis C virus genotype 1a (isolate 1) (HCV), UniProt P26664)
Experiment: HCV NS3-4A protease assay
Type: biochemical, HCV genotype 1a
Conditions: strain HCV-1, fluorogenic peptide substrate, read-out: Protease assay Ex. 12 IC50
Procedure: The inhibitory activity of certain compounds of Table A against HCV NS3-4A serine protease is determined in a homogenous assay using the full-length NS3-4A protein (genotype 1a, strain HCV-1) and a commercially available internally-quenched fluorogenic peptide substrate as described by Taliani, M., et al. 1996 Anal. Biochem. 240:60-67, which is incorporated by reference in its entirety.

HCV NS3-4A serine protease (full-length NS3-4A protein), sequence (P26664 1027-1657): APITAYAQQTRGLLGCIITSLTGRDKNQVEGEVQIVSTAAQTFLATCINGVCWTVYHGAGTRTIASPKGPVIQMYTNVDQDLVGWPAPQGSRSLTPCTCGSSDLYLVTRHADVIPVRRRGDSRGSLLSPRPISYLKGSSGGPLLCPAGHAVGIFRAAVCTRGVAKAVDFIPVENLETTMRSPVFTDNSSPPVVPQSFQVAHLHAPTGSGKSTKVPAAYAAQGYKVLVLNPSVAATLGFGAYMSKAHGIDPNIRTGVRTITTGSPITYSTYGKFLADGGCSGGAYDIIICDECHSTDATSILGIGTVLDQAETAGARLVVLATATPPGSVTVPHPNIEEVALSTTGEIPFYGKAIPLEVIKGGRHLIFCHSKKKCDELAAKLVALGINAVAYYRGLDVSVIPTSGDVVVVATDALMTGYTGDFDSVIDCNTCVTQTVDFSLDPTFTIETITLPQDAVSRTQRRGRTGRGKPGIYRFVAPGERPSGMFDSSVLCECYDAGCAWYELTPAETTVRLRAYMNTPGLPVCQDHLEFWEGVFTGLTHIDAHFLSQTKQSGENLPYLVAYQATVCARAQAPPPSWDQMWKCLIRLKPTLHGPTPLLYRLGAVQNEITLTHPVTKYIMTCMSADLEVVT
HCV NS3-4A serine protease (full-length NS3-4A protein), sequence (P26664 1658-1711 partner): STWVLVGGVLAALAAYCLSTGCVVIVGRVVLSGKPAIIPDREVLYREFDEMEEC

`C=C[C@@H]1C[C@]1(NC(=O)[C@@H]1C[C@@]2(CN1C(=O)[C@@H](NC(=O)[C@@H](NC(=O)[C@@H]1CCCCN1C(C)C)C1CCCCC1)C1CCOCC1)C(C)(C)C21CCC1)C(=O)NS(=O)(=O)N(CC)CC` [Compound 84, (5R,8S)-7-[(2S)-2-{[(2S)-2-cyclohexyl-2-({[(2S)-1-isopropylpiperidin-2-yl]carbonyl}amino)acetyl]amino}-2-(tetrahydro-2H-pyran-4-yl)acetyl]-N-[(1R,2S)-1-{[(diethylamino)sulfonyl]carbamoyl}-2-vinylcyclopropyl]-10,10-dimethyl-7-azadispiro[3.0.4.1]decane-8-carboxamide] and `C=C[C@@H]1C[C@]1(NC(=O)[C@@H]1C[C@@]2(CN1C(=O)[C@@H](NC(=O)[C@@H](NC(=O)[C@@H]1CCCCN1CC)C1CCCCC1)C1CCOCC1)C(C)(C)C21CCC1)C(=O)NS(=O)(=O)N(CC)CC` [Compound 85, (5R,8S)-7-[(2S)-2-{[(2S)-2-cyclohexyl-2-({[(2S)-1-ethylpiperidin-2-yl]carbonyl}amino)acetyl]amino}-2-(tetrahydro-2H-pyran-4-yl)acetyl]-N-[(1R,2S)-1-{[(diethylamino)sulfonyl]carbamoyl}-2-vinylcyclopropyl]-10,10-dimethyl-7-azadispiro[3.0.4.1]decane-8-carboxamide] are within 1.5-fold of each other in IC50: 6 nM for the first, 4.5 nM for the second.

First: CC[C@@H]1C[C@]1(NC(=O)[C@@H]1C[C@@]2(CN1C(=O)[C@@H](NC(=O)[C@@H](NC(=O)[C@@H]1CCCCN1CC)C1CCCCC1)C(C)(C)C)C(C)(C)C21CCC1)C(=O)NS(=O)(=O)N(CC)CC [Compound 86, (5R,8S)-7-[(2S)-2-{[(2S)-2-cyclohexyl-2-({[(2S)-1-ethylpiperidin-2-yl]carbonyl}amino)acetyl]amino}-3,3-dimethylbutanoyl]-N-[(1R,2R)-1-{[(diethylamino)sulfonyl]carbamoyl}-2-ethylcyclopropyl]-10,10-dimethyl-7-azadispiro[3.0.4.1]decane-8-carboxamide]
Second: CC[C@@H]1C[C@]1(NC(=O)[C@@H]1C[C@@]2(CN1C(=O)[C@@H](NC(=O)[C@@H](NC(=O)[C@@H]1CCCCN1CC)C1CCCCC1)C(C)(C)C)C(C)(C)C21CCC1)C(=O)NS(=O)(=O)N1CCCC1 [Compound 87, (5R,8S)-7-[(2S)-2-{[(2S)-2-cyclohexyl-2-({[(2S)-1-ethylpiperidin-2-yl]carbonyl}amino)acetyl]amino}-3,3-dimethylbutanoyl]-N-{(1R,2R)-2-ethyl-1-[(pyrrolidin-1-ylsulfonyl)carbamoyl]cyclopropyl}-10,10-dimethyl-7-azadispiro[3.0.4.1]decane-8-carboxamide]
The IC50 of the first is 1.6-fold lower: 4.5 nM for the first, 7 nM for the second.

Going from `C=C[C@@H]1C[C@]1(NC(=O)C1C[C@@]2(CN1C(=O)[C@@H](NC(=O)c1cccc(C(=O)NC)c1)C(C)(C)C)C(C)(C)C21CCC1)C(=O)NS(=O)(=O)N1CCCC1` (stereo partly drawn) [Compound 88, N-[(1S)-1-{[(5R)-10,10-dimethyl-8-({(1R,2S)-1-[(pyrrolidin-1-ylsulfonyl)carbamoyl]-2-vinylcyclopropyl}carbamoyl)-7-azadispiro[3.0.4.1]dec-7-yl]carbonyl}-2,2-dimethylpropyl]-N′-methylisophthalamide] to `C=C[C@@H]1C[C@]1(NC(=O)[C@@H]1C[C@@]2(CN1C(=O)[C@@H](NC(=O)[C@@H](NC(=O)[C@@H]1CC(F)(F)CN1C(C)C)C1CCCCC1)C(C)(C)C)C(C)(C)C21CCC1)C(=O)NS(=O)(=O)N1CCCC1` [Compound 89, (5R,8S)-7-[(2S)-2-{[(2S)-2-cyclohexyl-2-({[(2S)-4,4-difluoro-1-isopropylpyrrolidin-2-yl]carbonyl}amino)acetyl]amino}-3,3-dimethylbutanoyl]-10,10-dimethyl-N-{(1R,2S)-1-[(pyrrolidin-1-ylsulfonyl)carbamoyl]-2-vinylcyclopropyl}-7-azadispiro[3.0.4.1]decane-8-carboxamide], the IC50 falls from 500 nM to 30 nM (17-fold).
